This passage reports IC50 results from ChEMBL document CHEMBL4765362, “Thirty Years of HDAC Inhibitors: 2020 Insight and Hindsight” (J Med Chem, 2020).

Assay [1] addresses T1, Polyamine deacetylase HDAC10 (Homo sapiens, UniProt Q969S8).
T1 sequence (Q969S8 whole entry): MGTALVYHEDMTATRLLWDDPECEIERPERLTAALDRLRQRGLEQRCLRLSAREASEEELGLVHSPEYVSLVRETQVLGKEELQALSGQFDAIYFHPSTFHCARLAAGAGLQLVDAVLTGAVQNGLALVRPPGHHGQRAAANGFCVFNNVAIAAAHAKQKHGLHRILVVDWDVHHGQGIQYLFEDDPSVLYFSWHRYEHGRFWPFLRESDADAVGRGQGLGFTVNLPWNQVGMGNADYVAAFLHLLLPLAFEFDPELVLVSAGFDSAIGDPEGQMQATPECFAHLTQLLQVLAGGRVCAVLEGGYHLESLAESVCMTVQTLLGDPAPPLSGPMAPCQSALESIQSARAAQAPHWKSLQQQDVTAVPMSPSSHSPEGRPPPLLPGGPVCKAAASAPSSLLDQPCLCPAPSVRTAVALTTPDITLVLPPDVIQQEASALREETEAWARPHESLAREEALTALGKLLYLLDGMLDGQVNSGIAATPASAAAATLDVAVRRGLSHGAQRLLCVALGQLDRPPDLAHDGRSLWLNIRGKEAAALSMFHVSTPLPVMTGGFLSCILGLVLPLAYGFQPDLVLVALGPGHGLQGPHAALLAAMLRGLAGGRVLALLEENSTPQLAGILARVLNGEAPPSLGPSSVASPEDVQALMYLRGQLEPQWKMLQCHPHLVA
Briefly: Inhibition of HDAC10 (unknown origin).

A further assay has as its target T2, Histone deacetylase 11 (Homo sapiens, UniProt Q96DB2).
T2 sequence (Q96DB2 whole entry): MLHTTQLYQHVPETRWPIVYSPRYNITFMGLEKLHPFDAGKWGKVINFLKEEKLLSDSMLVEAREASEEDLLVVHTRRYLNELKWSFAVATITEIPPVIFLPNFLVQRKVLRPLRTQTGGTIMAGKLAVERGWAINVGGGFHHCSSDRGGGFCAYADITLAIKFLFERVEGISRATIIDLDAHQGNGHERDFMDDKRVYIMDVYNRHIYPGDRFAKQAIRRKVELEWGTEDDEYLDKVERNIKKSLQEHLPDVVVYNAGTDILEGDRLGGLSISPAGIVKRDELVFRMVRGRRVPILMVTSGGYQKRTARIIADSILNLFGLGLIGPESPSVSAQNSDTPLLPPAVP
In words: Inhibition of HDAC11 (unknown origin).

For assay [2], the target named is T3, Polyamine deacetylase HDAC10 (Danio rerio, UniProt F1QCV2).
T3 sequence (F1QCV2 whole entry): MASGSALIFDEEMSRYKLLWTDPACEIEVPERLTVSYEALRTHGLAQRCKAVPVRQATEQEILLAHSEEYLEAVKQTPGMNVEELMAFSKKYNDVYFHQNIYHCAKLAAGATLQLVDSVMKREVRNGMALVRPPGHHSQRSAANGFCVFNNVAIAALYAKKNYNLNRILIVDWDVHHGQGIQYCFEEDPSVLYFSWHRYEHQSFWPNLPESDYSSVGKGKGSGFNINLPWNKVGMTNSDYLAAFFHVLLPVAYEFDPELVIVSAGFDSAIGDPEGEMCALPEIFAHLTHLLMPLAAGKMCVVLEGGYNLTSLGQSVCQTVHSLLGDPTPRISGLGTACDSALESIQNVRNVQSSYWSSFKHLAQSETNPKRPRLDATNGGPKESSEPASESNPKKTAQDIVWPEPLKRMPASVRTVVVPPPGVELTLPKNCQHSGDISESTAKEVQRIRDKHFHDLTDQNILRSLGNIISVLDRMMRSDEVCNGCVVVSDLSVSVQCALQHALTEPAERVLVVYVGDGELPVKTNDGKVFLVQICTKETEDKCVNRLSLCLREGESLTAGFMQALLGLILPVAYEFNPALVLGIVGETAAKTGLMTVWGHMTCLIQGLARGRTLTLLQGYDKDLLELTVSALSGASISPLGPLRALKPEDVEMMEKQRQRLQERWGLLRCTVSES
Briefly: Inhibition of zebrafish HDAC10 (2 to 675 residues) expressed in Escherichia coli BL21(DE3) cells using N-acetylputrescine as substrate preincubated for 10 mins followed by substrate and measured after 45 to 60 mins by liquid chromatography-mass spectrometry.

The target in assay [3] is Histone deacetylase 3/Nuclear receptor corepressor 2 (HDAC3/NCoR2) (Homo sapiens, UniProt O15379). Briefly: Inhibition of His-tagged GST-fused human HDAC3/NcoR2 expressed in sf9 cells using acetyl-lysine tripeptide as substrate preincubated for 10 mins followed by substrate addition and shaken for 5 secs and measured over 30 mins.
A further assay has as its target Histone deacetylase 4 (Homo sapiens, UniProt P56524). Briefly: Inhibition of human HDAC4 expressed in baculovirus infected sf9 cells using acetyl-lysine tripeptide as substrate preincubated for 10 mins followed by substrate addition and shaken for 5 secs and measured over 30 mins.
The target of the next assay is Histone deacetylase 5 (Homo sapiens, UniProt Q9UQL6). In words: Inhibition of human HDAC5 using acetyl-lysine tripeptide as substrate preincubated for 10 mins followed by substrate addition and shaken for 5 secs and measured over 30 mins.
The target in assay [4] is T4, Protein deacetylase HDAC6 (Homo sapiens, UniProt Q9UBN7).
T4 sequence (Q9UBN7 whole entry): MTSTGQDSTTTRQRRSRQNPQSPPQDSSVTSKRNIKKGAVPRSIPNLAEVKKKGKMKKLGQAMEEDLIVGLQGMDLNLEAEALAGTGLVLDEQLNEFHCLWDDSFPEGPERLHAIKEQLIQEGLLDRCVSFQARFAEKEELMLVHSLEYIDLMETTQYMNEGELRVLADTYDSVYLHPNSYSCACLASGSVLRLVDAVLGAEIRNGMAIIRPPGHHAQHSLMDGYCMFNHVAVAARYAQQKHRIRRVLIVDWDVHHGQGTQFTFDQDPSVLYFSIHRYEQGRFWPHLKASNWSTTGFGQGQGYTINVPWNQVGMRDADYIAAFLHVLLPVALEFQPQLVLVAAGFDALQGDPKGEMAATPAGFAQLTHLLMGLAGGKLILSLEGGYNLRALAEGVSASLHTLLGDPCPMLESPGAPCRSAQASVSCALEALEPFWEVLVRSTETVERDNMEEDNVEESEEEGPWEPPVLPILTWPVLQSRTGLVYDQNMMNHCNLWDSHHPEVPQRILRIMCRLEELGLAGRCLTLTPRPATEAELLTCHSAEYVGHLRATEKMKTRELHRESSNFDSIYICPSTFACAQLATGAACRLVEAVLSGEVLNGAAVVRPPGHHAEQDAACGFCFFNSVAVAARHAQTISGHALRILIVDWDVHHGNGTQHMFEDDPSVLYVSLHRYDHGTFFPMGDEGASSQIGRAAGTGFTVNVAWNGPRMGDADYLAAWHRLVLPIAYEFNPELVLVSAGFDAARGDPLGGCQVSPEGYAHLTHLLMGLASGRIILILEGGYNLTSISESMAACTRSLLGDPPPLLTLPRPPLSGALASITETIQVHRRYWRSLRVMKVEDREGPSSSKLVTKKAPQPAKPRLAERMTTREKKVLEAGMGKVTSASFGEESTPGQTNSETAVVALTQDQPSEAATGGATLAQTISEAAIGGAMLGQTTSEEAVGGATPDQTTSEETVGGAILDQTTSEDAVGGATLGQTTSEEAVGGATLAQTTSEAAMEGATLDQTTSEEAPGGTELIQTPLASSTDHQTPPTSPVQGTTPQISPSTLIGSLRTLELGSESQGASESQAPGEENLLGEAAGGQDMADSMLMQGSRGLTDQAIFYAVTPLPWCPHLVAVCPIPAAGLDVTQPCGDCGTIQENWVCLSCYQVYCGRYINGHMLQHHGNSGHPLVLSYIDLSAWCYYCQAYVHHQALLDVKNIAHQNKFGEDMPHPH
In words: Inhibition of HDAC6 (unknown origin) using acetyl-lysine tripeptide as substrate preincubated for 10 mins followed by substrate addition and shaken for 5 secs and measured over 30 mins.

A further assay addresses T5, Histone deacetylase 7 (Homo sapiens, UniProt Q8WUI4).
T5 sequence (Q8WUI4 whole entry): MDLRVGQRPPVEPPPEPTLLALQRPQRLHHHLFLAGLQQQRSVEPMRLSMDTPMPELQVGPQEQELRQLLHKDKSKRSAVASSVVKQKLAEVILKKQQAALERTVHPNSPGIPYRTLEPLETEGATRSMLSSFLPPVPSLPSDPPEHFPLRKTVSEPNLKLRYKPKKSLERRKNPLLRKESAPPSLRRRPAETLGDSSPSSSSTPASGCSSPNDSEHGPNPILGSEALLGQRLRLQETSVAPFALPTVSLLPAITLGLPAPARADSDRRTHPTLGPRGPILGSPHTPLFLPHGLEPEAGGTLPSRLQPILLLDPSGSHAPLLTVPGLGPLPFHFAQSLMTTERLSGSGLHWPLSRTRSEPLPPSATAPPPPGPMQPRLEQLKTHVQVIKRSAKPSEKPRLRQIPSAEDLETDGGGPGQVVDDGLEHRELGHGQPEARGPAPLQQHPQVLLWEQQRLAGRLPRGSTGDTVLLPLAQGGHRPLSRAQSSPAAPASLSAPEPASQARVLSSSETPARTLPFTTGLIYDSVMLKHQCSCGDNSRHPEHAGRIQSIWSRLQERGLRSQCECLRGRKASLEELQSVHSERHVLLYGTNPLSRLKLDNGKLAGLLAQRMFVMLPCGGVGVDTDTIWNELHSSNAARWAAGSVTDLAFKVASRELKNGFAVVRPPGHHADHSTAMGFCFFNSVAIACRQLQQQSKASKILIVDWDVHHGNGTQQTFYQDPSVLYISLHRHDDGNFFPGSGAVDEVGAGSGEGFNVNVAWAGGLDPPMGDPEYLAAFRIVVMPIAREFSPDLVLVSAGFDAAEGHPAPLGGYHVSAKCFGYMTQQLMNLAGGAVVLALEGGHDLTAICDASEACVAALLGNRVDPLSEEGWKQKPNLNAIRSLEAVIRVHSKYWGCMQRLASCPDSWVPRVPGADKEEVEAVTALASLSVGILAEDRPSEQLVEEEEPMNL
In words: Inhibition of human N-terminal GST-tagged HDAC7 (518 to end residues) expressed in baculovirus infected sf9 cells using acetyl-lysine tripeptide as substrate preincubated for 10 mins followed by substrate addition and shaken for 5 secs and measured over 30 mins.

The target of the next assay is T6, Histone deacetylase 8 (Homo sapiens, UniProt Q9BY41).
T6 sequence (Q9BY41 whole entry): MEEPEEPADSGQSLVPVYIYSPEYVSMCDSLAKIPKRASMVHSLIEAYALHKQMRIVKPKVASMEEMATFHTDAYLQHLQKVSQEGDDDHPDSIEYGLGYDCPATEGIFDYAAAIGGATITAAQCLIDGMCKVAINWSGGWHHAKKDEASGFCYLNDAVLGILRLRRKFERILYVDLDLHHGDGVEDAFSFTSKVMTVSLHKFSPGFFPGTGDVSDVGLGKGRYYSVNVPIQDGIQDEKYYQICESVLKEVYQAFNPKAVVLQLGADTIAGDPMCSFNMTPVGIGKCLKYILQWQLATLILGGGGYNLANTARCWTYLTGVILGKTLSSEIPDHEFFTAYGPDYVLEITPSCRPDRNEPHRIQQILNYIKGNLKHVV
In words: Inhibition of recombinant human C-terminal His-tagged HDAC8 expressed in baculovirus infected sf9 cells using acetyl-lysine tripeptide as substrate preincubated for 10 mins followed by substrate addition and shaken for 5 secs and measured over 30 mins.

A further assay addresses Histone deacetylase 9 (Homo sapiens, UniProt Q9UKV0). Briefly: Inhibition of C-terminal His-tagged human HDAC9 (604 to 1066 residues) expressed in baculovirus infected sf9 cells using acetyl-lysine tripeptide as substrate preincubated for 10 mins followed by substrate addition and shaken for 5 secs and measured over 30 mins.
The next assay concerns the target Histone deacetylase 2 (Homo sapiens, UniProt Q92769). Briefly: Inhibition of human HDAC2 expressed in Sf9 cells using acetyl-lysine tripeptide as substrate preincubated for 10 mins followed by substrate addition and shaken for 5 secs and measured over 30 mins.

Sequence of Histone deacetylase 4 (P56524 whole entry): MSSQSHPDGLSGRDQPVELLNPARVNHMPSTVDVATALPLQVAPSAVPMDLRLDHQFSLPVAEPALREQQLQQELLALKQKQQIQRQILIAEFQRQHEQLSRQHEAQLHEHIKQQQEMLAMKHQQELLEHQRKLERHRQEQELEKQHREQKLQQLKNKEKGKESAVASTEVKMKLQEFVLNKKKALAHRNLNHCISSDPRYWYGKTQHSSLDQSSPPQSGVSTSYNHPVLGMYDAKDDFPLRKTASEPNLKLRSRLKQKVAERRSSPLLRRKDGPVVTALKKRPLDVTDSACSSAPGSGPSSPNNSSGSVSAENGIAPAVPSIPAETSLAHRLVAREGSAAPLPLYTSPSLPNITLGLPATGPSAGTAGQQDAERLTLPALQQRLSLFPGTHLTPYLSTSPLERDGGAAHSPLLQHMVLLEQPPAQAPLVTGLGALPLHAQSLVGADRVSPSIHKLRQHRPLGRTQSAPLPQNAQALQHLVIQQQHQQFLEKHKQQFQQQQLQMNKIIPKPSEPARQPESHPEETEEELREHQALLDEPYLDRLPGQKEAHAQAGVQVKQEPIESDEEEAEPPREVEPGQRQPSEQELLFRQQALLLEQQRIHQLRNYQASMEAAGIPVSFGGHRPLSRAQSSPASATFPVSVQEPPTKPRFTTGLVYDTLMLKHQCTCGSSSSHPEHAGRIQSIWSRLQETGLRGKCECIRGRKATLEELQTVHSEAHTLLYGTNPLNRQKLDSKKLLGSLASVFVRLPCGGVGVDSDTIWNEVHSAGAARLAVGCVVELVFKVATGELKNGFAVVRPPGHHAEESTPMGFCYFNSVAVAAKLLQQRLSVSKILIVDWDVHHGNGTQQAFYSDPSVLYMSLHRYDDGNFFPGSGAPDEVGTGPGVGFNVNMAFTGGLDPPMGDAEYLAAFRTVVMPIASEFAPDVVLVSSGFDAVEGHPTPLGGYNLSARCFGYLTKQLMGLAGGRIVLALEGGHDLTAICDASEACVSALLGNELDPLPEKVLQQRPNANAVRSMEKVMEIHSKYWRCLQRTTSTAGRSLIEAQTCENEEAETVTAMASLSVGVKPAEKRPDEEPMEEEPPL
Sequence of Histone deacetylase 2 (Q92769 whole entry): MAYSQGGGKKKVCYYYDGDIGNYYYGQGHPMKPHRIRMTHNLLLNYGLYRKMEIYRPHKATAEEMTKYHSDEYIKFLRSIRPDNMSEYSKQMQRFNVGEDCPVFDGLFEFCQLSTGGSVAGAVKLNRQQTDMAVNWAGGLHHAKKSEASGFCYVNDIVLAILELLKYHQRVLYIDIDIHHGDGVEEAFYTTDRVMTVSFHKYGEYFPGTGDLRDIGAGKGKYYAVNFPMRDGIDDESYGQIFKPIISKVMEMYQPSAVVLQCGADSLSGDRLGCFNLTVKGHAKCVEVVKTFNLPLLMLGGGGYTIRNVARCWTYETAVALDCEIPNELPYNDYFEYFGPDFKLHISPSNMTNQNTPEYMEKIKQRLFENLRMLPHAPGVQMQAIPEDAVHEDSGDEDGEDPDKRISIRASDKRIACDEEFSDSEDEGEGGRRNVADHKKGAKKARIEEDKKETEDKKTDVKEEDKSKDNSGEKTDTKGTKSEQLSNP
Sequence of Histone deacetylase 9 (Q9UKV0 whole entry, the tested form may be a part): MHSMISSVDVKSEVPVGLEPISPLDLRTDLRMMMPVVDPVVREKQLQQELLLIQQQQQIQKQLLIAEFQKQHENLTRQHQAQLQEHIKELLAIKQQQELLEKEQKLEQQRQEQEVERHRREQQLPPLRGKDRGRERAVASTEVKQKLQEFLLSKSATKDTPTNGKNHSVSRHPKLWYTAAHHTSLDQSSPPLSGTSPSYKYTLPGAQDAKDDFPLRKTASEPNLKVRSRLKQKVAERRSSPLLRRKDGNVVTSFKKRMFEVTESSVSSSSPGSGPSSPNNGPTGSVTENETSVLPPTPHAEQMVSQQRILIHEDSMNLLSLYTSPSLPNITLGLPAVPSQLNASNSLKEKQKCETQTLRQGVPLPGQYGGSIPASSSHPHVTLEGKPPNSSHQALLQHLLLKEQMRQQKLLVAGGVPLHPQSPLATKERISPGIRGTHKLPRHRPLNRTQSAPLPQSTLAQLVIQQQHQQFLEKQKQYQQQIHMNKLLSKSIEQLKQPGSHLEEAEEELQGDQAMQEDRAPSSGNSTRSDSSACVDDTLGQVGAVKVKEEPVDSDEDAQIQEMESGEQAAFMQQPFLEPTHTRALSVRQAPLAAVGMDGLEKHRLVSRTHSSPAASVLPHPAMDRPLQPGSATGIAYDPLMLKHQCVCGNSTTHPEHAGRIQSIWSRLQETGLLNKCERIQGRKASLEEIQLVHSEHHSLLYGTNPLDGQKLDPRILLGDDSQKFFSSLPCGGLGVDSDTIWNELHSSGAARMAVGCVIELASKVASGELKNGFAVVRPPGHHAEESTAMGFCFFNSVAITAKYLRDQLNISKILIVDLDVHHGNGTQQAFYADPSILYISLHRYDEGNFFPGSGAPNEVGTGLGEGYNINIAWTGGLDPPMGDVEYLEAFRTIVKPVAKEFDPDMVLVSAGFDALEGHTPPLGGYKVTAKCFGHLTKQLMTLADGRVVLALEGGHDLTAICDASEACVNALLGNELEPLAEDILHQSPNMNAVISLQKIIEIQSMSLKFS
Sequence of Histone deacetylase 5 (Q9UQL6 whole entry): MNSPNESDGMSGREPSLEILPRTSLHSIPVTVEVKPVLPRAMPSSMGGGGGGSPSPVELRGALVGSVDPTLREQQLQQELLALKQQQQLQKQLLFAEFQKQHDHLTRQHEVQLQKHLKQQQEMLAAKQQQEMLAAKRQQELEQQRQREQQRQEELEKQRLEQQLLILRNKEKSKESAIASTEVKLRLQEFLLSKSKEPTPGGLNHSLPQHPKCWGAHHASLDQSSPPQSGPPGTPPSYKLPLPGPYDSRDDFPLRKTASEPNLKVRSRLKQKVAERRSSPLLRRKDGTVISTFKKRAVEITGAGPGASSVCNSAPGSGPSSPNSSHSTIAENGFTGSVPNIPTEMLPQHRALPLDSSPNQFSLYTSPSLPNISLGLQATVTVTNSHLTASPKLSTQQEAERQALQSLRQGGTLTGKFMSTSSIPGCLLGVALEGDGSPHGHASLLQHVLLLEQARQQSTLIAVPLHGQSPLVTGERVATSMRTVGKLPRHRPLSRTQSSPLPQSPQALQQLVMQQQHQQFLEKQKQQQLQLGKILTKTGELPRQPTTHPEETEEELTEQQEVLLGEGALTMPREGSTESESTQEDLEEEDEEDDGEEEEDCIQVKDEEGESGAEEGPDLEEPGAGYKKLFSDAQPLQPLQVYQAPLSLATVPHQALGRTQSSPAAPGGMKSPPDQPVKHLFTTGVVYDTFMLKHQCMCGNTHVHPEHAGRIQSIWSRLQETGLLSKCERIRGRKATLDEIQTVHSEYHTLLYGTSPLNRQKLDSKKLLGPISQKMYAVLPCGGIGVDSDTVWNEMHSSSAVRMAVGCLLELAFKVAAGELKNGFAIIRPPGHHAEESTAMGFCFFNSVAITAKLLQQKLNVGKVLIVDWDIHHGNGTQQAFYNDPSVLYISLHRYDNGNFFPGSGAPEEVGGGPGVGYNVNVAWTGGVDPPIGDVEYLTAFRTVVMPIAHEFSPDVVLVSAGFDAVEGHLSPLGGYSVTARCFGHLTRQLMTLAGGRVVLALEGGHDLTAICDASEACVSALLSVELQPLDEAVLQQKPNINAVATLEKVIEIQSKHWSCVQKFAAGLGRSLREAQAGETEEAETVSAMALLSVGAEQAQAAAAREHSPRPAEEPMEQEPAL

For the molecule `Nc1cc(F)ccc1NC(=O)c1ccc(CNC(=O)/C=C/c2cccnc2)cc1` [TUCIDINOSTAT], the IC50 in assay [1] turned out to be 100 nM; on Histone deacetylase 11 it was 400 nM.
Molecule `NCCCNCCCCCC(=O)NO` displayed an IC50 in assay [2] of 120 nM.
In the case of `Nc1ccc(-c2cccs2)cc1NC(=O)c1ccc2nc(N3CCNCC3)ccc2c1`, the half-maximal inhibitory concentration (IC50) in assay [3] was 1000 nM; against Histone deacetylase 4 it was over 20000 nM; against Histone deacetylase 5 it was over 20000 nM; in assay [4], over 20000 nM; on Histone deacetylase 7 it was over 20000 nM; on Histone deacetylase 8 it was over 20000 nM. The IC50 against Histone deacetylase 9 was over 20000 nM; against Histone deacetylase 2, 26 nM.
